Experimental data as given in patent US10208007B2, “Use of strigolactones and strigolactone analogs for treating proliferative conditions” (The State of Israel, Ministry of Agriculture & Rural …, priority 2011, dated 2019).
“Also recorded” adds a separate entry of the source.

How the values were obtained:
[1] = tested on: Saccharomyces cerevisiae; assay: Yeast cell culture growth (OD); assay type: cell-based
Description: Saccharomyces cerevisiae and Candida oleophila yeast cells were grown overnight in a reach nutrient media at 28° C., at 150 rpm. Following, they were diluted to 0.4 OD in low nutrient media (Lily) and were divided into 96 wells. The cells were treated with GR-24 or ST-362, at the indicated concentrations. Cell culture growth was monitored every hour for 17 hours, at 28° C., with gentle shake before each OD read. OD was determined using fluorometer. Statistical differences between curves were analyzed using compareGrowthCurves function from the Statistical Modeling package, statmod (http://bioinf.wehi.edu.au/software/compareCurves/), significance was determined once P≤0.05.

[2] = tested on: Cyclin B1; assay: Western blot analysis of cyclin B1 levels; assay type: cell-based, human; settings: DU145, 24 hour treatment, then ALLN 4 or 8 hours
[3] = tested on: A549; assay: XTT viability assay; assay type: cell-based, human; settings: A549, 3 days
Description: (§1) Viability was assayed after 3 days (XTT, ATCC). IC50 concentrations are indicated (Table 3 above).

[4] = tested on: MDA-MB-436; assay: XTT viability assay; assay type: cell-based, human; settings: MDA-MB-436, 3 days
Description: as §1

[5] = tested on: MDA-MB-231 breast cancer cells; assay: Xenograft tumor model; assay type: in vivo; settings: SCID mice, 10 mg/kg iv twice a week, 4 treatments
Description: To establish subcutaneous tumors, actively growing MDA-MB-231 breast cancer cells were harvested and 1.5×10^6 cells in 100 μl PBS were injected into the mammary fat pads of mice (n=15). The lesions were allowed to grow until their average sizes were approximately 4.5 mm×4.5 mm (about 3 weeks). The mice were then randomized into 3 groups for various treatments including vehicle control, and two strigolactone analogs: ST-362 and ST-357. Treatment started at day 1, 10 ppm (10 mg/Kg) twice a week for a total of 4 treatments. ST-362 and ST-357 were administered intravenously (iv). Body weight and tumor measurements were recorded twice weekly. Tumor cross-sectional area was calculated by multiplying the length×width and tumor volume was calculated by cubing the mean value of length and width. Results are summarized and plotted.
Data are expressed as mean±SD. Statistical significance was assessed by one-way ANOVA and Games-Howell Post Hoc test. A value of P<0.05 was considered significant and represents significance compared with untreated controls, unless indicated otherwise. Data was analyzed by Graphpad PRISMS and SPSS.

[6] = tested on: U20S cells; assay: Strigolactone analog induced gene expression changes; assay type: cell-based, human; settings: 5 ppm
Description: To further elucidate the transcriptional program by which strigolactone analogs may affect growth and survival of cancer cells, U20S cells were treated with ST-362 or MEB-55 (5 ppm) for either 6 or 24 hours to permit early and late gene expression changes to be distinguished. U20S cells were selected based on their enhanced sensitivity to strigolactone treatment (see FIG. 7). […] Up-regulation of cytokines (CCL3L3, GDF15) and growth factors (PGF), and down-regulation of TGFBR11 was also noted. Apoptosis regulating genes were also identified, including DDIT3, BIRC3 and BAG3. DDIT3 encodes a member of the CCAAT/enhancer-binding protein (C/EBP) family of transcription factors and functions as a dominant-negative inhibitor by forming heterodimers with other C/EBP members and preventing their DNA binding activity. DDIT3 is induced by stress, including DNA damage and DDIT3 over-expression can induce cell cycle arrest. After 6 hours, MEB-55 treatment was associated with increased expression of p21cip (CDKN1A), Cyclin F (CCNF), Cyclin A2 (CCNA2) and decreased expression of CDK6, whereas ST-362 induced only a modest down-regulation of Cyclin B1 (CCNB1). Therefore, changes in the expression profile of cell cycle regulators, was not a global hallmark of strigolactone exposure. The only exception was Cyclin G2 (CCNG2) whose expression was elevated in both ST-362 and MEB-55 treatment groups. Cyclin G2 is an unconventional cyclin homolog which is linked to growth inhibition and whose expression is induced by DNA damaging chemotherapeutics.

[7] = tested on: MDA-MB-231; assay: XTT viability after timed exposure and strigolactone removal; assay type: cell-based, human; settings: 5 and 10 ppm, XTT at 24 hours
Description: As further detailed herein below in the Experimental section, strigolactones and strigolactone analogs inhibit growth through a G2-phase arrest and cause apoptosis at higher concentrations wherein the GR-24 treatment causes an increase in the percentage of MCF-7 and MDA-MB-231 cells in G2-phase. Cells were treated with strigolactone analogs to determine whether or not they alter cell cycle progression in the same way. Dose dependant increases in the percentage of cells in G2 phase were observed. […] After a total of 24 hours, an XTT assay was carried out.

CC1=C[C@H](O/C=C2/C(=O)O[C@@H]3c4ccccc4C[C@H]23)OC1=O (relative stereo) [GR-24, (3aR*,8bS*,E)-3-(((R*)-4-methyl-5-oxo-2,5-dihydrofuran-2-yloxy)methylene)-3,3a,4,8b-tetrahydro-2H-indeno[1,2-b]furan-2-one]
Cell culture growth ([1]; apparent 8 hours after application, 17 hours monitoring): significant reduction in cell culture growth

CC1=CC(O/C=C2/C(=O)c3c(c4cc(-c5scc6c5OCCO6)ccc4n3C)C2C)OC1=O (centres unmarked) [ST-362, (2E)-2-[(2,5-dihydro-4-methyl-5-oxofuran-2-yloxy)methylene]-1,2-dihydro-7-(2,3-dihydrothieno[3,4-b][1,4]dioxin-7-yl)-1,4-dimethyl-cyclopenta[b]indole-3-(4H)-one]
Partial rescue of Cyclin B1 levels by ALLN [2]: 2 fold
IC50 at 72 h [3]: 6.7 ppm
IC50 at 72 h [4]: 5.9 ppm
Mean tumor volume ([5]; control 24.2±5.57): 17.7±4.28 mm^3
Tumor growth ([5]; p<0.0015): effective in inhibiting tumor growth
Fold-Change ABCB1 ([6]; 6 hours): 3.6 fold
Fold-Change AHSA1 ([6]; 6 hours): 2.1 fold
Fold-Change ALDH1B1 ([6]; 6 hours): −2.1 fold
Fold-Change ATF3 ([6]; 6 hours): 2.2 fold
Fold-Change BAG3 ([6]; 6 hours): 4.6 fold
Fold-Change BIRC3 ([6]; 6 hours): −2.4 fold
Fold-Change CCL3L3 ([6]; 6 hours): 3.7 fold
Fold-Change CCNB1 ([6]; 6 hours): −2.1 fold
Fold-Change CCNG2 ([6]; 6 hours): 3.6 fold
Fold-Change CLDN12 ([6]; 6 hours): 2.3 fold
Fold-Change CYP24A1 ([6]; 6 hours): −2.6 fold
Fold-Change DDIT3 ([6]; 6 hours): 6.2 fold
Fold-Change FOXD1 ([6]; 6 hours): −2.4 fold
Fold-Change FOXO4 ([6]; 6 hours): 2.5 fold
Fold-Change GDF15 ([6]; 6 hours): 7.6 fold
Fold-Change GEM ([6]; 6 hours): 2.4 fold
Fold-Change HSPA1A ([6]; 6 hours): 7.3 fold
Fold-Change HSPA1B ([6]; 6 hours): 9.2 fold
Fold-Change HSPA1L ([6]; 6 hours): 2.7 fold
Fold-Change HSPA6 ([6]; 6 hours): 79.8 fold
Fold-Change HSPA7 ([6]; 6 hours): 23.3 fold
Fold-Change HSPB8 ([6]; 6 hours): 2.7 fold
Fold-Change PGF ([6]; 6 hours): 6.2 fold
Fold-Change PPP1R15A ([6]; 6 hours): 2.7 fold
Fold-Change PTGS2 ([6]; 6 hours): 3.4 fold
Fold-Change SLC3A2 ([6]; 6 hours): 3.6 fold
Fold-Change SLC7A11 ([6]; 6 hours): 2.2 fold
Fold-Change SLC31A2 ([6]; 6 hours): 2.3 fold
Fold-Change SLC44A2 ([6]; 6 hours): 2.5 fold
Fold-Change TGFBR2 ([6]; 6 hours): −2.0 fold
Fold-Change ABCA13 ([6]; 24 hours): −2.8 fold
Fold-Change AMPH ([6]; 24 hours): −3.5 fold
Fold-Change BIRC3 ([6]; 24 hours): 2.6 fold
Fold-Change CCL20 ([6]; 24 hours): 6.6 fold
Fold-Change CCNB1 ([6]; 24 hours): −2.2 fold
Fold-Change CCNG2 ([6]; 24 hours): 2.7 fold
Fold-Change CTGF ([6]; 24 hours): 2.4 fold
Fold-Change CYR61 ([6]; 24 hours): 3.6 fold
Fold-Change DHRS2 ([6]; 24 hours): −2.5 fold
Fold-Change DUSP5 ([6]; 24 hours): 3.9 fold
Fold-Change E2F2 ([6]; 24 hours): −3.3 fold
Fold-Change EGR1 ([6]; 24 hours): 2.2 fold
Fold-Change ESM1 ([6]; 24 hours): 6.9 fold
Fold-Change GDF15 ([6]; 24 hours): 4.2 fold
Fold-Change HSPA5 ([6]; 24 hours): −2.8 fold
Fold-Change ITGA2 ([6]; 24 hours): 3.4 fold
Fold-Change KIF20A ([6]; 24 hours): −4.7 fold
Fold-Change LAMA1 ([6]; 24 hours): 3.0 fold
Fold-Change RN7SK ([6]; 24 hours): 16.8 fold
Fold-Change SCG5 ([6]; 24 hours): 3.0 fold
Fold-Change SLC7A11 ([6]; 24 hours): 3.6 fold
Fold-Change SNORD3A ([6]; 24 hours): 4.1 fold
Fold-Change SNORD3C ([6]; 24 hours): 4.0 fold
Fold-Change SNORD3D ([6]; 24 hours): 4.8 fold
Fold-Change SPP1 ([6]; 24 hours): 3.9 fold
Fold-Change TGFBI ([6]; 24 hours): −3.4 fold
Concentrations giving a significant reduction in cell culture growth ([1]; apparent from the time of application): ≥ 0.1 µM
Cell viability ([7]; 2 hours exposure): No significant changes; also recorded: No changes in cell viability
Cell viability ([7]; 4 hours exposure, p<0.01): significant decrease in viability
